Calls of active or inactive are those of the source. Cut-off read from the data, not from the text of the source: actives have a measured IC50 and inactives only a lower limit.

For the assay, the target named is Envelope glycoprotein gp160 (Human immunodeficiency virus 1, UniProt Q6QLK5). The experiment in a line: inhibitors of HIV fusion peptide binding, primary screen, biochemical, uHTS, fluorescence dequenching (AID 1986).
Chain of Envelope glycoprotein gp160 (Q6QLK5 whole entry, the tested form may be a part): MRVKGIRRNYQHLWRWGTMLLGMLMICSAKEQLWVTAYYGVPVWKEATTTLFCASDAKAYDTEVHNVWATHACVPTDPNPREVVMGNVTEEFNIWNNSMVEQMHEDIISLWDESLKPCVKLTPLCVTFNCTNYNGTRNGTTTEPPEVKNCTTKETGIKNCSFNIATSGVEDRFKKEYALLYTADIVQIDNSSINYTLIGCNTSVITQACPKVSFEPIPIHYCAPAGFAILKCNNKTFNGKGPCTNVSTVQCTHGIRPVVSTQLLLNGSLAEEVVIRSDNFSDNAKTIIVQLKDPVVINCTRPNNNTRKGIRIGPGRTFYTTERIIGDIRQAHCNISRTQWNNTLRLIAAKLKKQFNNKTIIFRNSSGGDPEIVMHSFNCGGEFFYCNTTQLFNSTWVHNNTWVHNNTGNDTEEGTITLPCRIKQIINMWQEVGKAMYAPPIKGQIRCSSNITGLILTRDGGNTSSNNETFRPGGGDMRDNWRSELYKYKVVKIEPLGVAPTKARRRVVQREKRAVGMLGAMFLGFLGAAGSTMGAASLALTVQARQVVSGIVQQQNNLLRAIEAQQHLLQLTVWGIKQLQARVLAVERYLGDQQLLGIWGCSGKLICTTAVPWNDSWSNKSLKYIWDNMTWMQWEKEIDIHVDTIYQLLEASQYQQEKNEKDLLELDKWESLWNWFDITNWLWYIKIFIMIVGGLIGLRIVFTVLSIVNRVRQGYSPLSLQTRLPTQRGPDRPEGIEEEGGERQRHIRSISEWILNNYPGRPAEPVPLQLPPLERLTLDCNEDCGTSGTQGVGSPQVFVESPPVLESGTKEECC
Regarding `O=C(Nc1ccc(Br)cc1C(=O)O)c1ccc2c(c1)C(=O)N(Cc1ccccc1)C2=O`, the 50% inhibitory concentration (IC50) (in general, the point on the concentration scale where inhibition reaches its midpoint) is 13.5 µM (active). The result for `CCc1nnc(NS(=O)(=O)c2ccc(N/C=C(\C=O)c3nc4cc(Cl)ccc4o3)cc2)s1` reads 19.7 µM (active). The result for `Cc1cc(/C=c2\sc3nc4ccccc4n3c2=O)c(C)n1-c1ccc(C(=O)O)cc1` reads 25.8 µM (active); that for `Cc1ccc(S(=O)(=O)NC2=NC(=O)/C(=C/c3cc([N+](=O)[O-])ccc3O)S2)cc1`, 13.5 µM (active).

Source of the values: ChEMBL document CHEMBL1201862, “PubChem BioAssay data set” (2004).
